According to patent US9487501B2, “Pyrazole carboxamide compounds and uses thereof” (Hoffmann-La Roche Inc., priority 2012, dated 2016):
Where a name gives a salt, the structure may show the parent alone.

How the values were obtained:
rat TAAR1 = rat TAAR1 (Rattus norvegicus (Rat), UniProt Q923Y9); assay: Radioligand binding assay on rat TAAR1; conditions: read-out: Ki (μM) rat; rat TAAR1, membranes of HEK-293 cells, radioligand displacement;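 also: stably transfected HEK293 cell membranes with a tritiated radioligand, 1 h incubation at 4 °C, nonspecific binding taken as binding with 10 µM unlabeled ligand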
Procedure: (§1) For the generation of stably transfected cell lines HEK293 cells were transfected with the pIRESneo2 expression plasmids containing the TAAR coding sequences (described above) with Lipofectamine 2000 (Invitrogen) according to the instructions of the manufacturer, and 24 hrs post transfection the culture medium was supplemented with 1 mg/ml G418 (Sigma, Buchs, Switzerland). […] Radioligand Binding Assay on Rat TAAR1 Membrane Preparation and Radioligand Binding. […] Cells were released from culture flasks using trypsin/EDTA, harvested, washed twice with ice-cold PBS (without Ca^2+ and Mg^2+), pelleted at 1,000 rpm for 5 min at 4° C., frozen and stored at −80° C. Frozen pellets were suspended in 20 ml HEPES-NaOH (20 mM, pH 7.4) containing 10 mM EDTA and homogenized with a Polytron (PT 6000, Kinematica) at 14,000 rpm for 20 s. The homogenate was centrifuged at 48,000×g for 30 min at 4° C. Subsequently, the supernatant was removed and discarded, and the pellet resuspended in 20 ml HEPES-NaOH (20 mM, pH 7.4) containing 0.1 mM EDTA using the Polytron (20 s at 14,000 rpm). This procedure was repeated and the final pellet resuspended in HEPES-NaOH containing 0.1 mM EDTA and homogenized using the Polytron. Typically, aliquots of 2 ml membrane portions were stored at −80° C. With each new membrane batch the dissociation constant (Kd) was determined via a saturation curve. […] Nonspecific binding was defined as the amount of ^3[H]-(S)-4-[(ethyl-phenyl-amino)-methyl]-4,5-dihydro-oxazol-2-ylamine bound in the presence of 10 μM unlabeled ligand. All compounds were tested at a broad range of concentrations (10 pM to 10 μM) in duplicates. […] The 96 deep well plates were incubated for 1 hr at 4° C. Incubations were terminated by rapid filtration through Unifilter-96 plates (Packard Instrument Company) and glass filters GF/C (Perkin Elmer) presoaked for 1 hr in polyethylenimine (0.3%) and washed 3 times with 1 ml of cold binding buffer. After addition of 45 μl of Microscint 40 (PerkinElmer) the Unifilter-96 plate was sealed and after 1 hr the radioactivity counted using a TopCount Microplate Scintillation Counter (Packard Instrument Company). Radioligand Binding Assay on Mouse TAAR1 Membrane Preparation and Radioligand Binding. […] Cells were released from culture flasks using trypsin/EDTA, harvested, washed twice with ice-cold PBS (without Ca^2+ and Mg^2+), pelleted at 1,000 rpm for 5 min at 4° C., frozen and stored at −80° C. Frozen pellets were suspended in 20 ml HEPES-NaOH (20 mM, pH 7.4) containing 10 mM EDTA and homogenized with a Polytron (PT 6000, Kinematica) at 14,000 rpm for 20 s. The homogenate was centrifuged at 48,000×g for 30 min at 4° C. Subsequently, the supernatant was removed and discarded, and the pellet resuspended in 20 ml HEPES-NaOH (20 mM, pH 7.4) containing 0.1 mM EDTA using the Polytron (20 s at 14,000 rpm). This procedure was repeated and the final pellet resuspended in HEPES-NaOH containing 0.1 mM EDTA and homogenized using the Polytron. Typically, aliquots of 2 ml membrane portions were stored at −80° C. With each new membrane batch the dissociation constant (Kd) was determined via a saturation curve.

mouse TAAR1 = mouse TAAR1 (Mus musculus (Mouse), UniProt Q923Y8); assay: Radioligand binding assay on mouse TAAR1; conditions: read-out: Ki (μM) mouse; mouse TAAR1, membranes of HEK-293 cells, radioligand displacement
Chain of mouse TAAR1 (Q923Y8 whole entry): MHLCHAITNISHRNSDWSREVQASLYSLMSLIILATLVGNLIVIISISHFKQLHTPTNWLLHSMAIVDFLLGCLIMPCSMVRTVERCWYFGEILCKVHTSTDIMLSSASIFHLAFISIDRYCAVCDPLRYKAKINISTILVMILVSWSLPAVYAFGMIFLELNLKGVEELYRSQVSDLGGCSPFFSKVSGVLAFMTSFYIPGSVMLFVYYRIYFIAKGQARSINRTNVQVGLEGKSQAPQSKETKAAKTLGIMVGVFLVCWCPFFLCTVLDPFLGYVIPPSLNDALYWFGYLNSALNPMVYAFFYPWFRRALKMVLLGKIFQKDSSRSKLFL
Procedure: as §1

Chain of rat TAAR1 (Q923Y9 whole entry): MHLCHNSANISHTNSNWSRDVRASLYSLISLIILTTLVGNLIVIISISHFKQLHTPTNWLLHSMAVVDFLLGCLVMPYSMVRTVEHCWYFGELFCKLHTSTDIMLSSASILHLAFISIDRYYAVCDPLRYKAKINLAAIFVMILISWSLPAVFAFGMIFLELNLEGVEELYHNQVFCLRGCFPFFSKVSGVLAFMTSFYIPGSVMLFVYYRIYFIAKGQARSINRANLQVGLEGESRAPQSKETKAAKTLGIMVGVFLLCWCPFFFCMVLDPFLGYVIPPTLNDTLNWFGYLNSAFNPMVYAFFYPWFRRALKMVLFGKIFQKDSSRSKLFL

Row | SMILES | Ki (rat TAAR1) | Ki (mouse TAAR1)
1 | N#Cc1ccc(-n2cc(C(=O)Nc3ccc([C@H]4CNCCO4)cc3)cn2)cc1F [Example 24, (S)-1-(4-cyano-3-fluorophenyl)-N-(4-(morpholin-2-yl)phenyl)-1H-pyrazole-4-carboxamide hydrochloride] | 0.0154 µM | 0.0175 µM
2 | N#Cc1cc(F)ccc1-n1cc(C(=O)Nc2ccc([C@H]3CNCCO3)cc2)cn1 [Example 25, (S)-1-(2-cyano-4-fluorophenyl)-N-(4-(morpholin-2-yl)phenyl)-1H-pyrazole-4-carboxamide hydrochloride] | 0.0078 µM | 0.0082 µM
3 | O=C(Nc1ccc([C@H]2CNCCO2)cc1)c1cnn(-c2ccc(OC(F)F)cc2)c1 [Example 21, (S)-1-(4-(difluoromethoxy)phenyl)-N-(4-(morpholin-2-yl)phenyl)-1H-pyrazole-4-carboxamide hydrochloride] | 0.004 µM | 0.0017 µM
4 | O=C(Nc1ccc([C@H]2CNCCO2)cc1)c1cnn(-c2ncc(C(F)(F)F)cc2F)c1 [Example 19, (S)-1-(3-fluoro-5-(trifluoromethyl)pyridin-2-yl)-N-(4-(morpholin-2-yl)phenyl)-1H-pyrazole-4-carboxamide hydrochloride] | 0.016 µM | 0.0135 µM
5 | Nc1c(C(=O)Nc2ccc([C@H]3CNCCO3)cc2)cnn1-c1ccc(F)cc1 [Example 2, (S)-5-amino-1-(4-fluorophenyl)-N-(4-(morpholin-2-yl)phenyl)-1H-pyrazole-4-carboxamide dihydrochloride] | 0.401 µM | 0.0144 µM
6 | O=C(Nc1ccc([C@H]2CNCCO2)cc1)c1cnn(-c2ccc(Br)cn2)c1 [Example 9, (S)-1-(5-bromopyridin-2-yl)-N-(4-(morpholin-2-yl)phenyl)-1H-pyrazole-4-carboxamide hydrochloride] | 0.0043 µM | 0.0017 µM

Other lines, results leading:

Row | Ki (rat TAAR1) | Ki (mouse TAAR1) | SMILES
7 | 0.0039 µM | 0.0015 µM | O=C(Nc1ccc([C@H]2CNCCO2)cc1)c1cnn(-c2cccc(F)c2)c1 [Example 5, (S)-1-(3-fluorophenyl)-N-(4-(morpholin-2-yl)phenyl)-1H-pyrazole-4-carboxamide hydrochloride]
8 | 0.0029 µM | 0.0035 µM | O=C(Nc1ccc([C@H]2CNCCO2)cc1)c1cnn(-c2ccnc(Br)c2)c1 [Example 16, (S)-1-(2-bromopyridin-4-yl)-N-(4-(morpholin-2-yl)phenyl)-1H-pyrazole-4-carboxamide hydrochloride]
9 | 0.0033 µM | 0.0007 µM | O=C(Nc1ccc([C@H]2CNCCO2)cc1)c1cnn(-c2ccc(F)cc2)c1 [Example 4, (S)-1-(4-fluorophenyl)-N-(4-(morpholin-2-yl)phenyl)-1H-pyrazole-4-carboxamide hydrochloride]
10 | 0.0005 µM | 0.0007 µM | O=C(Nc1ccc([C@H]2CNCCO2)cc1)c1cnn(-c2ccc(OC(F)(F)F)cc2)c1 [Example 26, (S)—N-(4-(morpholin-2-yl)phenyl)-1-(4-(trifluoromethoxy)phenyl)-1H-pyrazole-4-carboxamide hydrochloride]
